What was measured:
11β-HSD1 [1] = biological target: T1, 11β-HSD1 (Homo sapiens, UniProt P28845); experiment: Human aortic smooth muscle cell assay (cortisone to cortisol conversion); format: cell-based; details: primary human aortic smooth muscle cells (AoSMC), hTNFα-induced 11β-HSD1, cortisol measured by immunoassay
T1 construct: endogenous in cells; host or cells: primary human aortic smooth muscle cells (AoSMC), induced with hTNFα
Description: Human Aortic Smooth Muscle Cell Assay
Primary human aortic smooth muscle cells (AoSMC) are cultured in 5% FBS growth medium to a passage number of 6, then pelleted by centrifugation and resuspended at a density of 9×10^4 cells/mL in 0.5% FBS assay medium containing 12 ng/mL hTNFα to induce expression of 11β-HSD1. Cells are seeded into 96-well tissue culture assay plates at 100 μL/well (9×10^3 cells/well) and incubated for 48 hours at 37° C., 5% CO2. Following induction, cells are incubated for 4 hours at 37° C., 5% CO2 in assay medium containing test compounds then treated with 10 μL/well of 10 μM cortisone solubilized in assay medium, and incubated for 16 hours at 37° C., 5% CO2. Medium from each well is transferred to a plate for subsequent analysis of cortisol using a competitive fluorescence resonance time resolved immunoassay. In solution, an allophycocyanin (APC)-cortisol conjugate and free cortisol analyte compete for binding to a mouse anti-cortisol antibody/Europium (Eu)-anti mouse IgG complex. Higher levels of free cortisol result in diminishing energy transfer from the Europium-IgG to the APC-cortisol complex resulting in less APC fluorescence. Fluorescent intensities for Europium and APC are measured using a LJL Analyst AD. Europium and APC excitation is measured using 360 nm excitation and 615 nm and 650 nm emission filters respectively. Time resolved parameters for Europuium were 1000 μs integration time with a 200 μs delay. APC parameters are set at 150 μs integration time with a 50 μs delay. Fluorescent intensities measured for APC are modified by dividing by the Eu fluorescence (APC/Eu). This ratio is then used to determine the unknown cortisol concentration by interpolation using a cortisol standard curve fitted with a 4-parameter logistic equation. These concentrations are then used to determine compound activity by plotting concentration versus % inhibition, fitting with a 4-parameter curve and reporting the IC50.

11β-HSD1 [2] = biological target: T2, 11β-HSD1 (Mus musculus, UniProt P50172); experiment: Acute in vivo cortisone conversion assay; details: male C57BL/6 mice, oral dose 10 mg/kg, cortisone challenge 16 hours post dose, serum cortisol by LC-MS/MS
T2 construct: tissue Harlan Sprague Dawley; host or cells: whole animal, male C57BL/6 mice; serum cortisol read-out
Description: Acute In Vivo Cortisone Conversion Assay
In general, compounds are dosed orally into mice, the mice are challenged with a subcutaneous injection of cortisone at a set timepoint after compound injection, and the blood of each animal is collected some time later. Separated serum is then isolated and analyzed for levels of cortisone and cortisol by LC-MS/MS, followed by calculation of mean cortisol and percent inhibition of each dosing group. Specifically, male C57BL/6 mice are obtained from Harlan Sprague Dawley at average weight of 25 grams. Exact weights are taken upon arrival and the mice randomized into groups of similar weights. Compounds are prepared in 1% w-w HEC, 0.25% w-w polysorbate 80, 0.05% w-w Dow Corning antifoam #1510-US at various doses based on assumed average weight of 25 grams. Compounds are dosed orally, 200 μl per animal, followed by a subcutaneous dose, 200 μl per animal, of 30 mg/kg cortisone at 1 to 24 hours post compound dose. At 10 minutes post cortisone challenge, each animal is euthanized for 1 minute in a CO2 chamber, followed by blood collection via cardiac puncture into serum separator tubes. Once fully clotted, tubes are spun at 2500×g, 4° C. for 15 minutes, the serum transferred to wells of 96-well plates (Corning Inc, Costar #4410, cluster tubes, 1.2 ml, polypropylene), and the plates are frozen at −20° C. until analysis by LC-MS/MS. […]

T1 sequence (P28845 whole entry): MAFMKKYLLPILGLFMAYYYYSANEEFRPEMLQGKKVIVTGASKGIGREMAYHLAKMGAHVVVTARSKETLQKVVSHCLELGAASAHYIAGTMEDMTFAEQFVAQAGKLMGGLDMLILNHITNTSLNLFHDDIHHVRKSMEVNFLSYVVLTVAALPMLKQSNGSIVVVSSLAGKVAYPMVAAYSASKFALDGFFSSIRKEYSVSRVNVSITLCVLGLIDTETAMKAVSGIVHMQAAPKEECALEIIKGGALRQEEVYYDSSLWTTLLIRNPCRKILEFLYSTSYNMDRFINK
T2 sequence (P50172 whole entry): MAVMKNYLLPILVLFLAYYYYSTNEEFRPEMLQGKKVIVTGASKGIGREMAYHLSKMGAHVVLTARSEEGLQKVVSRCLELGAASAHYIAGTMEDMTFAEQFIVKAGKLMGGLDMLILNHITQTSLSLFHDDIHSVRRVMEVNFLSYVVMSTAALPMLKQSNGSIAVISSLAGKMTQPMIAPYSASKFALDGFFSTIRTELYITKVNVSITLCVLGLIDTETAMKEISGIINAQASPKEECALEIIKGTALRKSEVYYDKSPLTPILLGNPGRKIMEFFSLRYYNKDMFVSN

Row | SMILES | IC50 (11β-HSD1 [1]) [nM] | % Inhibition after 16 hours (dose of 10 (mg/kg)) (11β-HSD1 [2]) [%]
1 | CNC(=O)N1CCC(N2CC[C@@H](Cc3c(Cl)cc(-c4ccc(F)cc4)cc3Cl)C2=O)CC1 [Example 6, 4-[(R)-3-(3,5-Dichloro-4′-fluoro-biphenyl-4-ylmethyl)-2-oxo-pyrrolidin-1-yl]-piperidine-1-carboxylic acid methylamide] | 73 | 65
2 | O=C(Nc1ccccc1)N1CCC(N2CC[C@@H](Cc3c(Cl)cc(-c4ccc(F)cc4)cc3Cl)C2=O)CC1 [Example 8, 4-[(R)-3-(3,5-Dichloro-4′-fluoro-biphenyl-4-ylmethyl)-2-oxo-pyrrolidin-1-yl]-piperidine-1-carboxylic acid phenylamide] | 159 | –
3 | COC(=O)N1CCC(N2CC[C@@H](Cc3c(Cl)cc(-c4ccc(F)cc4)cc3Cl)C2=O)CC1 [Example 3, 4-[(R)-3-(3,5-Dichloro-4′-fluoro-biphenyl-4-ylmethyl)-2-oxo-pyrrolidin-1-yl]-piperidine-1-carboxylic acid methyl ester] | 84.5 | –
4 | CS(=O)(=O)N1CCC(N2CC[C@@H](Cc3c(Cl)cc(-c4ccc(F)cc4)cc3Cl)C2=O)CC1 [Example 1, (R)-3-(3,5-Dichloro-4′-fluoro-biphenyl-4-ylmethyl)-1-(1-methanesulfonyl-piperidin-4-yl)-pyrrolidin-2-one] | 85 | –
5 | COC(=O)N1CCC(N2CC[C@@H](Cc3c(Cl)cc(-c4ccc(C(=O)N5CCC(C(F)(F)F)CC5)cc4)cc3Cl)C2=O)CC1 [Example 4, 4-{(R)-3-[3,5-Dichloro-4′-(4-trifluoromethyl-piperidine-1-carbonyl)-biphenyl-4-ylmethyl]-2-oxo-pyrrolidin-1-yl}-piperidine-1-carboxylic acid methyl ester] | 231 | 92

Source: patent publication US7829582B2, “Piperidinyl substituted pyrrolidinones as inhibitors of 11-beta-hydroxysteroid dehydrogenase 1” (Eli Lilly and Company, priority 2006, dated 2010)
